SMILES strings stand for the structures. pIC50: −log10 of the molar value. Like-named read-outs stand apart in the source and are kept apart here. Where only a bound is given, the exact number is not on record here.

The target in the assay is T1, purified human IDO protein (Homo sapiens, UniProt P14902).
T1 construct: 2 extra amino acids (linker from the BglII cloning site of pQE70); made in house; host or cells: E. coli M15(pREP4) with plasmid pQE70-hIDO
Briefly: Enzymatic IDO assay (kynurenine production, absorbance at 480 nm). The settings on record: values reported in ranges. The class given is biochemical. In outline:
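Inhibitors (final 1 mM to 5 nM, in 50 mM potassium phosphate) preincubated with enzyme 5 min at 25 °C, then 200 μM L-tryptophan added, 15 min at 37 °C. TCA stop and 60 °C hydrolysis to kynurenine, detected with p-dimethylaminobenzaldehyde at 480 nm. IC50 by nonlinear regression.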

The mark [1] stands for this setting: recombinant human IDO, read-out: hIDO IC50.
[2] abbreviates: hIDO IC50, recombinant human IDO.

T1 sequence (P14902 whole entry P110S/E119G): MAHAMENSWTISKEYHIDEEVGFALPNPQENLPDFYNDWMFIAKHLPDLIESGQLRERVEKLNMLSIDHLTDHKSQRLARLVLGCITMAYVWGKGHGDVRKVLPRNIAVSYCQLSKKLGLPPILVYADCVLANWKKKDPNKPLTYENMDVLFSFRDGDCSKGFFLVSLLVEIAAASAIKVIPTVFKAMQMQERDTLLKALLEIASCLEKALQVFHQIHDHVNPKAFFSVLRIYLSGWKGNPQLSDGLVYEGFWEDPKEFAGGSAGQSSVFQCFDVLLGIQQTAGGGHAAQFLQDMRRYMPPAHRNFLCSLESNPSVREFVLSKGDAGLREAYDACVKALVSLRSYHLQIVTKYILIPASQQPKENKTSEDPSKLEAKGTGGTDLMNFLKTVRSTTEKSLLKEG

Consider `c1cnc2[nH]cc(-c3c[nH]cn3)c2c1` [compound 964, 3-(1H-imidazol-4-yl)-1H-pyrrolo[2,3-b]pyridine], for which the pIC50 under setting [1] is less than 4.00.
For the molecule `O=C(CC1CCOCC1)Nc1ccc(CCOc2ccccc2-c2c[nH]cn2)c(F)c1` [compound 1295, N-(4-(2-(2-(1H-imidazol-4-yl)phenoxy)ethyl)-3-fluorophenyl)-2-(tetrahydro-2H-pyran-4-yl)acetamide], the pIC50 under setting [1] is greater than 6.00.
The same measure, in the same setting: under `O=C(Cn1ccnc1)Nc1ccc(CCOc2ccccc2-c2c[nH]cn2)cc1` [compound 1217, N-(4-(2-(2-(1H-imidazol-4-yl)phenoxy)ethyl)phenyl)-2-(1H-imidazol-1-yl)acetamide] stands 5.00 to 6.00; under `OC(COc1ccccc1-c1c[nH]cn1)c1cccc(Br)c1` (stereo not shown) [compound 954, 2-(2-(1H-imidazol-4-yl)phenoxy)-1-(3-bromo-phenyl)ethanol], 4.00 to 5.00.
With `CN(C)C(=O)Oc1ccc(Cl)cc1-c1c[nH]cn1` [compound 1076, 4-chloro-2-(1H-imidazol-4-yl)phenyl dimethylcarbamate], under setting [2], the pIC50 is less than 4.00.
`O=S(=O)(Cc1ccccc1)Nc1ccc(CCOc2ccccc2-c2c[nH]cn2)cc1` [compound 1151, N-(4-(2-(2-(1H-imidazol-4-yl)phenoxy)ethyl)phenyl)-1-phenylmethanesulfonamide]: the pIC50 under setting [1] was 5.00 to 6.00.
On the same count and under the same terms, next, `Oc1ccc(-c2ccccc2)cc1-c1c[nH]cn1` [compound 1005, 3-(1H-imidazol-4-yl)biphenyl-4-ol]: 4.00 to 5.00.
As to `CC(=O)OCCN(C)C(=O)Oc1ccc(Cl)cc1-c1c[nH]cn1` [compound 1253, 2-(((4-chloro-2-(1H-imidazol-4-yl)phenoxy)carbonyl)(methyl)amino)ethyl acetate], the pIC50 under setting [2] was less than 4.00.
As for `CCOC(=O)n1cnc(-c2ccccc2)c1` [compound 1047, ethyl 4-phenyl-1H-imidazole-1-carboxylate], the pIC50 under setting [1] was less than 4.00.
Still for that read-out and setting: next, `COC(=O)c1ccc(C(=O)Nc2ccc(CCOc3ccccc3-c3c[nH]cn3)cc2)cc1` [compound 1271, methyl 4-((4-(2-(2-(1H-imidazol-4-yl)phenoxy)ethyl)phenyl)carbamoyl)benzoate]: 5.00 to 6.00.
Still for that read-out and setting: under `Oc1cccc(OCCC2CC=CCC2)c1-c1cnc[nH]1` (stereo not shown) [compound 1182, 3-(2-(cyclohex-3-en-1-yl)ethoxy)-2-(1H-imidazol-5-yl)phenol] stands 5.00 to 6.00.
Take `CC(C)(C)CC(=O)N1CCC(CCOc2ccccc2-c2c[nH]cn2)CC1` [compound 1143, 1-(4-(2-(2-(1H-imidazol-4-yl)phenoxy)ethyl)piperidin-1-yl)-3,3-dimethylbutan-1-one]: the pIC50 under setting [1] was 4.00 to 5.00.
On the same count and under the same terms, next, `Clc1ccc2c(-c3c[nH]cn3)ccnc2c1` [compound 969, 7-chloro-4-(1H-imidazol-4-yl)quinoline]: less than 4.00; `c1ccc(Nc2nc3ccc(CCOc4ccccc4-c4c[nH]cn4)cc3o2)cc1` [compound 1222, 6-(2-(2-(1H-imidazol-4-yl)phenoxy)ethyl)-N-phenylbenzo[d]oxazol-2-amine]: 5.00 to 6.00.
The same measure, in the same setting: next, `CC(=O)NCc1cccc(COc2ccccc2-c2c[nH]cn2)c1` [compound 958, N-(3-((2-(1H-imidazol-4-yl)phenoxy)methyl)benzyl)acetamide]: 4.00 to 5.00; `Oc1cc(F)c(Cl)cc1-c1cnc[nH]1` [compound 1130, 4-chloro-5-fluoro-2-(1H-imidazol-5-yl)phenol]: 5.00 to 6.00; `NC1CCCCC1NC(=O)Nc1ccc(CCOc2ccccc2-c2c[nH]cn2)cc1` (stereo not shown) [compound 1216, 1-(4-(2-(2-(1H-imidazol-4-yl)phenoxy)ethyl)phenyl)-3-(2-aminocyclohexyl)urea]: 5.00 to 6.00.
For `c1nc(-c2ccc3c(c2)OCO3)c[nH]1` [compound 955, 4-(benzo[d][1,3]dioxol-5-yl)-1H-imidazole], under setting [1], the pIC50 is less than 4.00.
On the same count and under the same terms, next, `O=C(O)c1ccccc1C(=O)Nc1ccc(CCOc2ccccc2-c2c[nH]cn2)cc1` [compound 1285, 2-((4-(2-(2-(1H-imidazol-4-yl)phenoxy)ethyl)phenyl)carbamoyl)benzoic acid]: 5.00 to 6.00.
For `O=C1NCCN1C(=O)Oc1ccc(Cl)cc1-c1c[nH]cn1` [compound 1147, 4-chloro-2-(1H-imidazol-4-yl)phenyl 2-oxoimidazolidine-1-carboxylate], the pIC50 under setting [2] is 5.00 to 6.00.
As for `Oc1cccc(OCCc2cccc(Cl)c2)c1-c1cnc[nH]1` [compound 1160, 3-(3-chlorophenethoxy)-2-(1H-imidazol-5-yl) phenol], the pIC50 under setting [1] was 5.00 to 6.00.
For the molecule `COC(=O)[C@@H](Cc1cn(C)c2ccccc12)NC(=O)Oc1ccc(Cl)cc1-c1c[nH]cn1` [compound 1264, (R)-methyl 2-(((4-chloro-2-(1H-imidazol-4-yl)phenoxy)carbonyl)amino)-3-(1-methyl-1H-indol-3-yl) propanoate], the pIC50 under setting [1] is 5.00 to 6.00.
As to `O=C(O)c1ccccc1-c1c[nH]cn1` [compound 926, 2-(1H-imidazol-4-yl)benzoic acid], the pIC50 under setting [1] was less than 4.00.
The same measure, in the same setting: under `O=C(COc1ccccc1-c1c[nH]cn1)C1CCCCC1` [compound 1354, 2-(2-(1H-imidazol-4-yl)phenoxy)-1-cyclohex-ylethanone] stands 5.00 to 6.00.
Still for that read-out and setting: next, `O=C(CN1CCOCC1)Nc1ccc(CCOc2ccccc2-c2c[nH]cn2)cc1` [compound 1214, N-(4-(2-(2-(1H-imidazol-4-yl)phenoxy)ethyl)phenyl)-2-morpholinoacetamide]: 5.00 to 6.00.
On the same count and under the same terms, next, `Nc1ccccc1CC(=O)Nc1ccc(CCOc2ccccc2-c2c[nH]cn2)cc1` [compound 1248, N-(4-(2-(2-(1H-imidazol-4-yl)phenoxy)ethyl)phenyl)-2-(2-aminophenyl)acetamide]: greater than 6.00.
Take `O=C(Cc1cnccn1)Nc1ccc(CCOc2ccccc2-c2c[nH]cn2)cc1` [compound 1153, N-(4-(2-(2-(1H-imidazol-4-yl)phenoxy)ethyl)phenyl)-2-(pyrazin-2-yl)acetamide]: the pIC50 under setting [1] is 4.00 to 5.00.
Same read-out and setting: under `CCOC(=O)c1ccc(COc2ccccc2-c2c[nH]cn2)cc1` [compound 1029, ethyl 4-((2-(1H-imidazol-4-yl)phenoxy)methyl) benzoate] stands 4.00 to 5.00; under `O=C(Cc1ccccc1[N+](=O)[O-])Nc1ccc(CCOc2ccccc2-c2c[nH]cn2)cc1` [compound 1242, N-(4-(2-(2-(1H-imidazol-4-yl)phenoxy)ethyl)phenyl)-2-(2-nitrophenyl)acetamide], greater than 6.00.
On the same count and under the same terms, under `BrCCOc1ccccc1-c1c[nH]cn1` [compound 1243, 4-(2-(2-bromoethoxy)phenyl)-1H-imidazole] stands 4.00 to 5.00.
Still for that read-out and setting: next, `Oc1cc(Cl)cc(-c2cnc[nH]2)c1O` [compound 1221, 5-chloro-3-(1H-imidazol-5-yl)benzene-1,2-diol]: 5.00 to 6.00.
Take `COc1cc(F)c(Cl)cc1-c1cnc[nH]1` [compound 1051, 5-(5-chloro-4-fluoro-2-methoxyphenyl)-1H-imidazole]: the pIC50 under setting [1] was less than 4.00.
Regarding `c1ccc(OCc2cccc(-c3c[nH]cn3)c2)cc1` [compound 996, 4-(3-(phenoxymethyl)phenyl)-1H-imidazole], the pIC50 under setting [1] was 4.00 to 5.00.
On the same count and under the same terms, under `COC(=O)c1cccc(C(=O)Nc2ccc(CCOc3ccccc3-c3c[nH]cn3)cc2)c1` [compound 1261, methyl 3-((4-(2-(2-(1H-imidazol-4-yl)phenoxy)ethyl)phenyl)carbamoyl)benzoate] stands greater than 6.00.

By pIC50 is commonly meant −log10 of the IC50, conventionally taken in molar units.

The record behind these values is patent US8722720B2, “Imidazole derivatives as IDO inhibitors” (NewLink Genetics Corporation, priority 2010, dated 2014).
